The text below walks through data of patent US20120231470A1, “METHODS AND SYSTEMS ASSOCIATED WITH DETECTION OF FATTY ACID ELONGATION IN A CELL” (priority 2011, published 2012).

The conditions of series [1]: known (Ref 10); cited from earlier work.
Series [2] has as its system fatty acid biosynthesis in B392 cells. Briefly: High-throughput 96-well screen for fatty acid biosynthesis inhibitors. The conditions noted are these: B392, 96-well plate; for Detection as fatty acid biosynthesis inhibitor in the high-throughput screen: FIG. 6; for Fluorescence ratio between non-treated cells and drug treated cells: C6N3 5 mM overnight, final drug concentrations 500, 50 or 5 μM, cerulenin at sub-bacteriostatic concentration. Type of series: cell-based, Vibrio harveyi. Here is the method: In this example, a high-throughput cell-based antibiotic screen, which would identify fatty acid biosynthesis inhibitors, was implemented. B392 cells in a 96-well plate were treated with various concentrations of commercially available fatty acid biosynthesis inhibitors, including cerulenin (Ref. 8), bischloroanthrabenzoxocinone (Ref. 10), thiolactomycin (Ref. 11), and platensimycin (Ref. 2) as well as a number of arbitrarily chosen drugs (listed in TABLE 3).
In TABLE 3 above, rows of the 96-well plate are indicated by a letter and the columns are indicated by a number. Antibiotics labeled with a *, the wells contain 200× stocks of 10 mM and 1 mM of antibiotic in descending order. For bischloroanthrabenzoxocinone, thiolactomycin, and platensimycin, the wells only contain 200× stocks of 1 mM of antibiotic. For other antibiotics, the wells contain 200× stocks of 100 mM, 10 mM, and 1 mM of antibiotic in descending order.
B392 cells given no drug treatment served as the control. Cells were then fed with C6N3 and allowed to grow overnight. Extracellular C6N3 was washed away with 0.9% NaCl three times, and cellular lipids were click-reacted with 50 μM cyclooctyne-coumarin conjugate for 30 minutes at 37° C. Non-reacted cyclooctyne-coumarin conjugate was washed away with 0.9% NaCl three times, and cells were re-suspended in 0.9% NaCl to be analyzed by plate reader. […]. It should be noted that the same method described here in Example 3 can be used to identify compounds which enhance fatty acid biosynthesis. […].
In particular, B392 cells were grown in 150 mL cultures of synthetic media (Ref. 9) until OD 0.3 was reached. Cells were transferred (1 mL of the culture loaded into each well) to a 2 mL 96-well plate via a multi-pipette robot (this robot was used for most liquid transfers mentioned in this example). To each well, 5 μL of antibiotic from a 200× stock antibiotic plate in DMSO (TABLE 3) was introduced to create final treatment concentrations of 500 μM, 50 μM, and 5 μM. After 30 minutes, 10 μL of 500 mM C6N3 in DMSO was introduced to each well for a final treatment concentration of 5 mM. Cells were grown overnight, then spun down at 2000 g for 10 minutes. Supernatant was removed, and then non-incorporated C6N3 was washed from cells three times by re-suspending the cells in 1 mL of 0.9% NaCl, spinning the cells down at 2000 g for 10 minutes, and removing the supernatant. The cells were re-suspended in 200 μL of 50 μM cyclooctyne-coumarin conjugate in 0.9% NaCl and incubated at 37° C. for 30 minutes. Cells were collected and washed three more times with 1 mL of 0.9% NaCl to remove non-reacted cyclooctyne-coumarin conjugate, and cells re-suspended in 400 μL of 0.9% NaCl were analyzed by plate reader for fluorescence (excitation 380 nm, detection 500 nm) and cell density.

For series [3], the system named is fatty acid elongation in V. harveyi strain CY1723. The series is described as follows: C6N3 incorporation/elongation assay, cyclooctyne-coumarin labeling, plate reader. The series is classed as cell-based, Vibrio harveyi. The conditions noted are these: C6N3 5 mM + cerulenin 10 μg/mL. Here is the method:
(§1) In particular, the cells were grown in 5 mL of synthetic media (Ref 9), and at OD 0.2, cerulenin was introduced to appropriate samples for a final treatment concentration of 10 μg/mL (sub-bacteriostatic). Then, at OD 0.3, C6N3 was introduced to appropriate samples for a final treatment concentration of 5 mM. After allowing the cells to grow in presence of C6N3 for 5 hours, the cells were spun down at 5000 g for 10 minutes, and the supernatant was removed. Non-incorporated C6N3 was washed from cells three times by re-suspending the cell pellet in 10 mL of 0.9% NaCl, spinning the cells down at 5000 g for 10 minutes, and removing the supernatant. […] The cells were re-suspended in 1 mL of 50 μM cyclooctyne-coumarin conjugate in 0.9% NaCl and incubated at 37° C. for 30 minutes. Cells were collected and washed three more times with 10 mL of 0.9% NaCl to remove non-reacted cyclooctyne-coumarin conjugate, and a fraction of the cells re-suspended in 2 mL of 0.9% NaCl were analyzed by plate reader (excitation 380 nm, detection 500 nm) or flow cytometry (excitation 407 nm, detection 450/40 bandpass filter).
In particular, the cells were grown in 5 mL of synthetic media (Ref 9), and at OD 0.2, cerulenin was introduced to appropriate samples for a final treatment concentration of 10 μg/mL (sub-bacteriostatic). […]

The subject of series [4] is fatty acid elongation in V. harveyi CY1723. Briefly: C6N3 incorporation/elongation assay, cyclooctyne-coumarin labeling, flow cytometry. Type of series: cell-based, Vibrio harveyi. Particulars: C6N3 5 mM + cerulenin 10 μg/mL. Here is the method:
(§2) In particular, the cells were grown in 5 mL of synthetic media (Ref 9), and at OD 0.2, cerulenin was introduced to appropriate samples for a final treatment concentration of 10 μg/mL (sub-bacteriostatic). Then, at OD 0.3, C6N3 was introduced to appropriate samples for a final treatment concentration of 5 mM. After allowing the cells to grow in presence of C6N3 for 5 hours, the cells were spun down at 5000 g for 10 minutes, and the supernatant was removed. Non-incorporated C6N3 was washed from cells three times by re-suspending the cell pellet in 10 mL of 0.9% NaCl, spinning the cells down at 5000 g for 10 minutes, and removing the supernatant. The cells were re-suspended in 1 mL of 50 μM cyclooctyne-coumarin conjugate in 0.9% NaCl and incubated at 37° C. for 30 minutes. Cells were collected and washed three more times with 10 mL of 0.9% NaCl to remove non-reacted cyclooctyne-coumarin conjugate, and cells re-suspended in 2 mL of 0.9% NaCl were analyzed by plate reader (excitation 380 nm, detection 500 nm) or flow cytometry (excitation 407 nm, detection 450/40 bandpass filter).
(§3) In addition, the samples were analyzed by flow cytometry (FIG. 4)

The subject of series [5] is fatty acid elongation in V. harveyi B392. The description is as above. Particulars: C6N3 5 mM + cerulenin 10 μg/mL. The series is classed as cell-based, Vibrio harveyi. How it is done: as §2, §3
For series [6], the system named is fatty acid elongation in Vibrio harveyi strain B392. Briefly: C6N3 incorporation/elongation assay, cyclooctyne-coumarin labeling, plate reader. The series is classed as cell-based. How it is done: as §1, §2

Consider `COc1cc(C)c2c(c1)O[C@]1(C)Cc3cc4c(c(O)c3[C@H]2O1)C(=O)c1c(O)c(Cl)c(O)c(Cl)c1C4(C)C` [Bischloroanthrabenzoxocinone], for which the Cell permeability result in series [1] is “poor cell permeability”. Also, the “Detection as fatty acid biosynthesis inhibitor in the high-throughput screen” value in series [2] is on record as “not detected”.

`C=C/C(C)=C/[C@@]1(C)SC(=O)C(C)=C1O` [thiolactomycin, Thiolactomycin]: in series [2], the “Fluorescence ratio between non-treated cells and drug treated cells” value is recorded as ~4.0; the “Detection as fatty acid biosynthesis inhibitor in the high-throughput screen” value is “can be detected”.

With `C/C=C/C/C=C/CCC(=O)[C@H]1O[C@H]1C(N)=O` [cerulenin, Cerulenin], the “Ratio (fluorescence/OD of Entry 1 divided by fluorescence/OD of the sample)” value came out at 11.99 in series [3] and 11.58 in series [6] (B392, C6N3 5 mM + cerulenin 10 μg/mL, plate reader). Moreover, the Fluorescence/OD is on record as 44069 in series [3] (5 hours) and 45609 in series [6] (B392, C6N3 5 mM + cerulenin 10 μg/mL, 5 hours, plate reader). For the same compound, the Mean fluorescence in series [4] is recorded as 1704; in series [5], 2347. Besides, the “Ratio (mean fluorescence of Entry 1 divided by mean fluorescence of the sample)” value in series [4] was 11.09; in series [5] it was 8.06. In addition, the “Fold decrease in fluorescence of cerulenin-treated culture compared to the same culture untreated” value in series [6] (B392, C6N3 5 mM, cerulenin 10 μg/mL, FIG. 3) is given as “about seven-fold”. Also, in series [6] (B392 and CY1723 cells treated with C6N3 and cerulenin, TABLES 1 and 2), the “Inhibition of fatty acid biosynthesis / azide incorporation in lipids” value is “inhibited fatty acid biosynthesis efficiently”. Besides, the “Fluorescence ratio between non-treated cells and drug treated cells” value in series [2] is ~4.5. Further, in series [2], the “Detection as fatty acid biosynthesis inhibitor in the high-throughput screen” value is reported as “can be detected”.

For `CC12C[C@@]34C=CC(=O)[C@@](C)(CCC(=O)Nc5c(O)ccc(C(=O)O)c5O)C3[C@H](CC1C4)O2` (stereo partly drawn) [platensimycin, Platensimycin], in series [2], the “Fluorescence ratio between non-treated cells and drug treated cells” value was ~2.6; the “Detection as fatty acid biosynthesis inhibitor in the high-throughput screen” value is “can be detected”.
